Measurements published in ChEMBL document CHEMBL5038605, “Probing the Allosteric Inhibition Mechanism of a Spike Protein Using Molecular Dynamics Simulations and Active Compound Identifications” (J Med Chem, 2022).
Activity calls are given as the source filed them. The rule behind the calls is not given here.

Tests used:
SARS-CoV-2 [1] = test: Antiviral activity against SARS-CoV-2 infected in vero E6 cells assessed as inhibition of viral replication at 100 uM preincubated for 1 hr followed by viral infection for 24 hrs by qRT-PCR analysis; type: functional, organism-based; conditions: Severe acute respiratory syndrome coronavirus 2, Vero C1008, time 25.0 hrs
SARS-CoV-2 [2] = test: Antiviral activity against SARS-CoV-2 infected in vero E6 cells assessed as inhibition of viral replication at 100 uM preincubated for 1 hr followed by viral infection for 2 hrs by qRT-PCR analysis; type: functional, organism-based; conditions: Severe acute respiratory syndrome coronavirus 2, Vero C1008, time 3.0 hrs

| SMILES | Activity (SARS-CoV-2 [1]) | Activity (SARS-CoV-2 [2]) |
| --- | --- | --- |
| Cc1nn(-c2ccccc2)c(Oc2ccccc2)c1CCC(=O)Nc1ccccc1 | Active |  |
| O=C(O)c1ccc(OCc2cccc3ccccc23)cc1 | Active |  |
| CC(=O)N1CCN(c2nc(C)cc(Nc3ccccc3)n2)CC1 | Active |  |
| Cc1ccc2nc(C34CC5CC(CC(C5)C3)C4)cc(C(=O)O)c2c1 | Active |  |
| Cn1cc(-c2cc3n(n2)CCC(=O)N3CC(=O)NCc2ccco2)c2ccccc21 | Active |  |
| O=C(O)c1cccc(-c2ccc(CNCCc3ccccc3)o2)c1 | Active | Active |
| CCn1ccc(-c2nc(C)nn2-c2cc(S(N)(=O)=O)ccc2F)cc1=O | Active |  |
